Structures can show the parent of a compound that is named as a salt.
Experiments:
[1] = tested on: recombinant guanylate cyclase reporter cell line; experiment: Effect on a recombinant guanylate cyclase reporter cell line; format: cell-based; details: minimum effective concentration; in some cases means of individual determinations; read-out: MEC
Procedure: B-2. Effect on a Recombinant Guanylate Cyclase Reporter Cell Line
The cellular activity of the compounds of the invention is determined using a recombinant guanylate cyclase reporter cell line, as described in F. Wunder et al., Anal. Biochem. 339, 104-112 (2005). Representative values (MEC=minimum effective concentration) for the compounds of the invention are shown in the table below (Table 1; in some cases as means of individual determinations): […]

[2] = target: T1, human phosphodiesterase 5 (PDE 5) (Homo sapiens, UniProt O76074); experiment: Inhibition of human phosphodiesterase 5 (PDE 5); format: biochemical; details: PDE 5 preparation from human platelets; in some cases means of individual determinations
T1 construct: PDE 5 preparations are obtained from human platelets by disruption; from tissue; host or cells: human platelets
Procedure: B-3. Inhibition of human phosphodiesterase 5 (PDE 5)
PDE 5 preparations are obtained from human platelets by disruption (Microfluidizer®, 800 bar, 3 passes), followed by centrifugation (75 000 g, 60 min, 4° C.) and ion exchange chromatography of the supernatant on a Mono Q 10/10 column (linear sodium chloride gradient, elution with a 0.2-0.3M solution of sodium chloride in buffer (20 mM Hepes pH 7.2, 2 mM magnesium chloride). Fractions having PDE 5 activity are combined (PDE 5 preparation) and stored at −80° C.
To determine their in vitro action on human PDE 5, the test substances are dissolved in 100% DMSO and serially diluted. Typically, dilution series (1:3) from 200 μM to 0.091 μM are prepared (resulting final concentrations in the test: 4 μM to 0.0018 μM). In each case 2 μl of the diluted substance solutions are placed into the wells of microtitre plates (Isoplate-96/200W; Perkin Elmer). Subsequently, 50 μl of a dilution of the above-described PDE 5 preparation are added. The dilution of the PDE 5 preparation is chosen such that during the later incubation less than 70% of the substrate are converted (typical dilution: 1:100; dilution buffer: 50 mM tris/hydrochloric acid pH 7.5, 8.3 mM magnesium chloride, 1.7 mM EDTA, 0.2% BSA). The substrate, [8-^3H] cyclic guanosine-3′,5′-monophosphate (1 μCi/μl; Perkin Elmer), is diluted 1:2000 with assay buffer (50 mM tris/hydrochloric acid pH 7.5, 8.3 mM magnesium chloride, 1.7 mM EDTA) to a concentration of 0.0005 μμCi/μl. By addition of 50 μl (0.025 μCi) of the diluted substrate, the enzyme reaction is finally started. The test mixtures are incubated at room temperature for 60 min and the reaction is stopped by adding 25 μl of a suspension of 18 mg/ml yttrium scintillation proximity beads in water (phosphodiesterase beads for SPA assays, RPNQ 0150, Perkin Elmer). The microtitre plates are sealed with a film and left to stand at room temperature for 60 min. Subsequently, the plates are analysed for 30 s per well in a Microbeta scintillation counter (Perkin Elmer). IC50 values are determined using the graphic plot of the substance concentration against percentage PDE 5 inhibition.

Cc1nc2c(cc1F)c(-c1nc(NCC(N)(CF)CF)c3c(n1)NC(=O)C3(C)C(F)(F)F)nn2Cc1cccc(F)c1F (racemic) [Example 6, rac-4-{[2-Amino-3-fluoro-2-(fluoromethyl)propyl]amino}-2-[1-(2,3-difluorobenzyl)-5-fluoro-6-methyl-1H-pyrazolo[3,4-b]pyridin-3-yl]-5-methyl-5-(trifluoromethyl)-5,7-dihydro-6H-pyrrolo[2,3-d]pyrimidin-6-one]
minimal effective concentration [1]: 0.1 µM
IC50 [2]: 32 nM

Cc1nc2c(cc1F)c(-c1nc(NCC(N)(CF)CF)c3c(n1)NC(=O)C3(C)C(F)(F)F)nn2Cc1ncccc1F (racemic) [Example 15, rac-4-{[2-Amino-3-fluoro-2-(fluoromethyl)propyl]amino}-2-{5-fluoro-1-[(3-fluoropyridin-2-yl)methyl]-6-methyl-1H-pyrazolo[3,4-b]pyridin-3-yl}-5-methyl-5-(trifluoromethyl)-5,7-dihydro-6H-pyrrolo[2,3-d]pyrimidin-6-one]
minimal effective concentration [1]: 0.1 µM
IC50 [2]: 100 nM

CC1(C(F)(F)F)C(=O)Nc2nc(-c3nn(Cc4ncccc4F)c4ncc(F)cc34)nc(NCC(N)(CF)CF)c21 (racemic) [Example 18, rac-4-{[2-Amino-3-fluoro-2-(fluoromethyl)propyl]amino}-2-{5-fluoro-1-[(3-fluoropyridin-2-yl)methyl]-1H-pyrazolo[3,4-b]pyridin-3-yl}-5-methyl-5-(trifluoromethyl)-5,7-dihydro-6H-pyrrolo[2,3-d]pyrimidin-6-one]
minimal effective concentration [1]: 0.1 µM
IC50 [2]: 100 nM

Cc1nc2c(cc1F)c(-c1nc(NCC(N)(CF)CF)c3c(n1)NC(=O)C3(C)C(F)(F)F)nn2Cc1cccc(F)c1F (single isomer, unassigned; ent-4) [Example 7, ent-4-{[2-Amino-3-fluoro-2-(fluoromethyl)propyl]amino}-2-[1-(2,3-difluorobenzyl)-5-fluoro-6-methyl-1H-pyrazolo[3,4-b]pyridin-3-yl]-5-methyl-5-(trifluoromethyl)-5,7-dihydro-6H-pyrrolo[2,3-d]pyrimidin-6-one (Enantiomer A)]
minimal effective concentration [1]: 0.3 µM
IC50 [2]: 120 nM

Cc1nc2c(cc1F)c(-c1nc(NCC(N)(CF)CF)c3c(n1)NC(=O)C3(C)C(F)(F)F)nn2Cc1cccc(F)c1F (single isomer, unassigned; ent-4) [Example 8, ent-4-{[2-Amino-3-fluoro-2-(fluoromethyl)propyl]amino}-2-[1-(2,3-difluorobenzyl)-5-fluoro-6-methyl-1H-pyrazolo[3,4-b]pyridin-3-yl]-5-methyl-5-(trifluoromethyl)-5,7-dihydro-6H-pyrrolo[2,3-d]pyrimidin-6-one (Enantiomer B)]
minimal effective concentration [1]: 0.1 µM
IC50 [2]: 120 nM

Cc1nc2c(cc1F)c(-c1nc(NCC(N)(CF)CF)c3c(n1)NC(=O)C3(C)C(F)(F)F)nn2Cc1ccccc1F (single isomer, unassigned; ent-4) [Example 10, ent-4-{[2-Amino-3-fluoro-2-(fluoromethyl)propyl]amino}-2-[5-fluoro-1-(2-fluorobenzyl)-6-methyl-1H-pyrazolo[3,4-b]pyridin-3-yl]-5-methyl-5-(trifluoromethyl)-5,7-dihydro-6H-pyrrolo[2,3-d]pyrimidin-6-one (Enantiomer A)]
minimal effective concentration [1]: 0.2 µM
IC50 [2]: 290 nM

Cc1nc2c(cc1F)c(-c1nc(NCC(N)(CF)CF)c3c(n1)NC(=O)C3(C)C(F)(F)F)nn2Cc1ccccc1F (single isomer, unassigned; ent-4) [Example 11, ent-4-{[2-Amino-3-fluoro-2-(fluoromethyl)propyl]amino}-2-[5-fluoro-1-(2-fluorobenzyl)-6-methyl-1H-pyrazolo[3,4-b]pyridin-3-yl]-5-methyl-5-(trifluoromethyl)-5,7-dihydro-6H-pyrrolo[2,3-d]pyrimidin-6-one (Enantiomer B)]
minimal effective concentration [1]: 0.1 µM
IC50 [2]: 390 nM

Cc1nc2c(cc1F)c(-c1nc(NCC(N)(CF)CF)c3c(n1)NC(=O)C3(C)C(F)(F)F)nn2Cc1c(F)ccc(F)c1F (single isomer, unassigned; ent-4) [Example 13, ent-4-{[2-Amino-3-fluoro-2-(fluoromethyl)propyl]amino}-2-[5-fluoro-6-methyl-1-(2,3,6-trifluorobenzyl)-1H-pyrazolo[3,4-b]pyridin-3-yl]-5-methyl-5-(trifluoromethyl)-5,7-dihydro-6H-pyrrolo[2,3-d]pyrimidin-6-one (Enantiomer A)]
minimal effective concentration [1]: 0.3 µM
IC50 [2]: 300 nM

Cc1nc2c(cc1F)c(-c1nc(NCC(N)(CF)CF)c3c(n1)NC(=O)C3(C)C(F)(F)F)nn2Cc1c(F)ccc(F)c1F (single isomer, unassigned; ent-4) [Example 14, ent-4-{[2-Amino-3-fluoro-2-(fluoromethyl)propyl]amino}-2-[5-fluoro-6-methyl-1-(2,3,6-trifluorobenzyl)-1H-pyrazolo[3,4-b]pyridin-3-yl]-5-methyl-5-(trifluoromethyl)-5,7-dihydro-6H-pyrrolo[2,3-d]pyrimidin-6-one (Enantiomer B)]
minimal effective concentration [1]: 0.1 µM
IC50 [2]: 100 nM

Cc1nc2c(cc1F)c(-c1nc(NCC(N)(CF)CF)c3c(n1)NC(=O)C3(C)C(F)(F)F)nn2Cc1ncccc1F (single isomer, unassigned; ent-4) [Example 16, ent-4-{[2-Amino-3-fluoro-2-(fluoromethyl)propyl]amino}-2-{5-fluoro-1-[(3-fluoropyridin-2-yl)methyl]-6-methyl-1H-pyrazolo[3,4-b]pyridin-3-yl}-5-methyl-5-(trifluoromethyl)-5,7-dihydro-6H-pyrrolo[2,3-d]pyrimidin-6-one (Enantiomer A)]
minimal effective concentration [1]: 0.07 µM
IC50 [2]: 57 nM

Cc1nc2c(cc1F)c(-c1nc(NCC(N)(CF)CF)c3c(n1)NC(=O)C3(C)C(F)(F)F)nn2Cc1ncccc1F (single isomer, unassigned; ent-4) [Example 17, ent-4-{[2-Amino-3-fluoro-2-(fluoromethyl)propyl]amino}-2-{5-fluoro-1-[(3-fluoropyridin-2-yl)methyl]-6-methyl-1H-pyrazolo[3,4-b]pyridin-3-yl}-5-methyl-5-(trifluoromethyl)-5,7-dihydro-6H-pyrrolo[2,3-d]pyrimidin-6-one (Enantiomer B)]
minimal effective concentration [1]: 0.65 µM

CC1(C(F)(F)F)C(=O)Nc2nc(-c3nn(Cc4ncccc4F)c4ncc(F)cc34)nc(NCC(N)(CF)CF)c21 (single isomer, unassigned; ent-4) [Example 19, ent-4-{[2-Amino-3-fluoro-2-(fluoromethyl)propyl]amino}-2-{5-fluoro-1-[(3-fluoropyridin-2-yl)methyl]-1H-pyrazolo[3,4-b]pyridin-3-yl}-5-methyl-5-(trifluoromethyl)-5,7-dihydro-6H-pyrrolo[2,3-d]pyrimidin-6-one (Enantiomer A)]
minimal effective concentration [1]: 0.07 µM
IC50 [2]: 53 nM

CC1(C)C(=O)Nc2nc(-c3nn(Cc4ccccc4F)c4cc(Cl)ccc34)nc(NCC(N)(CF)CF)c21 [Example 21, 4-{[2-Amino-3-fluoro-2-(fluoromethyl)propyl]amino}-2-[6-chloro-1-(2-fluorobenzyl)-1H-indazol-3-yl]-5,5-dimethyl-5,7-dihydro-6H-pyrrolo[2,3-d]pyrimidin-6-one trifluoroacetate]
minimal effective concentration [1]: 0.3 µM

From patent US20170240566A1, “AMINO-SUBSTITUTED ANNULATED PYRIMIDINES AND USE THEREOF” (Bayer Pharma Aktiengesellschaft, priority 2014, published 2017)
